Measured values taken from paper PMC11329928, “Design, synthesis and structure-activity relationship (SAR) studies of an unusual class of non-cationic fatty amine-tripeptide conjugates as novel synthetic antimicrobial agents” (Frontiers in Pharmacology, 2024).

Columns and labels:
[1] = RP-HPLC retention time used to determine hydrophobicity; assay type: physicochemical; conditions: analytical RP-HPLC, C18 Sunfire column (4.6 mm × 150 mm, 3.5 μm); A = 0.05% TFA in water, B = acetonitrile; 10% to 100% B in 20 min then isocratic 100% B 10 min; 217 and 254 nm; used as measure of hydrophobicity
Procedure: The purity of the lipopeptides was checked by analytical RP-HPLC on an Agilent Infinity instrument equipped with a Diode Array and a C18 Sunfire column (4.6 mm × 150 mm, 3.5 μm). As mobile phase A:B mixtures were used, where A = 0.05% TFA in water and B = acetonitrile. The samples were analyzed at 217 and 254 nm in a gradient from 10% of B to 100% of B in 20 min followed by isocratic 100% of B in 10 min.
Retention times were used to determine the hydrophobicity ([Neubauer et al., 2020]). HRMS (EI+) was carried out in an Agilent 6,520 Accurate-Mass Q-TOF LC/MS spectrometer using water/acetonitrile mixtures. Results can be found in Supplementary Section S3, S4.

[2] = tested on: Streptococcus pneumoniae R6; test: Growth inhibition / lysis screening of planktonic cultures (OD550/600); assay type: cell-based; design: key: (+++) full inhibition; (++) partial inhibition; (+) growth retardation; -: (−) no effect; conditions: S. pneumoniae R6, 50 and 100 μM compound added at early logarithmic phase (T1), OD550/600 followed 10 h, 37°C
Procedure: (§1) Planktonic cultures of selected pathogens (S. pneumoniae R6, S. pyogenes ^T, Staphylococcus aureus ^T, Escherichia coli DH10B, and Pseudomonas aeruginosa PAO1 strains) on early logarithmic-phase (T1) were assayed for their sensitivity to a broad range of DICAM compounds, as indicated in Table 1. Their bacteriostatic or lytic effect was first tested by measuring the variation of the OD550/600 as a function of time (10 h) when (50/100 μM) DICAMs were added, compared to untreated controls. The screening results, summarized in Table 1, evidenced that a potent antimicrobial activity may exist even when the negative charge of the peptide was higher than in the prototype compounds.
(§2) Susceptibility to DICAMs was first tested by growth-inhibition assays at 50 and 100 μM of compound. Briefly, working solutions at 5 mM or 10 mM DICAM in pure DMSO were prepared from DICAM stocks (40 mM in pure DMSO) and diluted with fresh culture medium to 5× the desired final concentration. Aliquots (50 µL) of these solutions were added to 200 µL of bacterium cultures grown to early exponential phase (OD550/600 c. a. 0.15–0.2 in sterile 96-well plates (Cultek, Spain). Incubation continued for 10 h at 37°C and turbidity (OD550/600) values were measured every 20 min to monitor growth and lysis, using a VersaMax microplate reader (Molecular Devices; United Kingdom). Next, the activity dependence on DICAM’s dose was examined by measuring the turbidity of treated and untreated cultures as a function of time. Also, the decay of bacterial viability (CFU/mL) at selected times of treatment was assessed by colony counting on LB-agar or TSA plates after overnight incubation at 37°C. By default, 10 μL of 10-fold serially diluted samples were plated, which set the lower detection limit at 10^2 CFU/mL (10^1 CFU/mL when 100 μL of the undiluted sample was seeded).

Escherichia coli DH10B = test: Growth inhibition screening of planktonic cultures (OD550/600); assay type: cell-based; design: key: (+++) full inhibition; (++) partial inhibition; (+) growth retardation; -: (−) no effect; conditions: E. coli DH10B, 50 and 100 μM compound added at T1, OD550/600 followed 10 h, 37°C
Procedure: as §1, §2

[3] = tested on: Pseudomonas aeruginosa PAO1; test: as above; assay type: cell-based; design: key: (+++) full inhibition; (++) partial inhibition; (+) growth retardation; -: (−) no effect; conditions: P. aeruginosa PAO1, 50 and 100 μM compound added at T1, OD550/600 followed 10 h, 37°C
Procedure: as §1, §2

Staphylococcus aureus T = test: as above; assay type: cell-based; design: key: (+++) full inhibition; (++) partial inhibition; (+) growth retardation; -: (−) no effect; conditions: S. aureus T, 50 and 100 μM compound added at T1, OD550/600 followed 10 h, 37°C
Procedure: as §1, §2

Streptococcus pyogenes T = test: as above; assay type: cell-based; design: key: (+++) full inhibition; (++) partial inhibition; (+) growth retardation; -: (−) no effect; conditions: S. pyogenes T, 50 and 100 μM compound added at T1, OD550/600 followed 10 h, 37°C
Procedure: as §1, §2

[4] = Calcein release from LUVs, all tested compositions; conditions: 10 μM DICAM, 25°C, vesicle buffer pH 7.4, calcein release
Procedure: (§3) LUVs were prepared for calceine liberation assays as described ([Chongsiriwatana and Barron, 2009]). Lipid composition (mole %) of LUVs was: POPG (100), POPG:CL (80:20), POPG:CL:DOPE ([…]), and POPG:CL:GlcDAG (75:5:20). Briefly, the nitrogen-dried lipid mixture was dissolved at 1.25 mM with 100 mM calceine in vesicle buffer (10 mM Tris, 140 mM NaCl, 0.5 mM EDTA, pH 7.4) followed by five thaw-freeze cycles. Calceine-entrapped LUVs were prepared by extrusion through 100 nm polycarbonate membranes (Avanti Polar Lipids). Non-entrapped calceine was separated from LUVs by gel filtration on a Sephacryl® S200-HR column (Sigma). LUVs permeabilization was monitored at 25°C by fluorescence emission at 550 nm (λex = 480 nm) as a function of time in a Fluoromax-4 spectrofluorometer (Horiba, France) using agitation. Signal stabilization of samples (1,500 µL vesicle buffer plus 45 µL LUVs) was recorded for 5 min before 10 µM final DICAM addition, and calcein release was monitored for a maximum of 20 min. After incubation, samples were solubilized in Triton X-100 (0.025%) and the fluorescence signal recorded thereafter was used to normalize the entire data set. Solubilization of DICAM-untreated LUVs in Triton X-100 was used as a positive control. No perturbation was detected in controls containing DMSO.

S. pyogenes T membrane [5] = test: Membrane permeation, SYTOX Green; assay type: cell-based, Streptococcus pyogenes; conditions: S. pyogenes T in PBS pH 7.2, 37°C
Procedure: (§4) Permeation and depolarization of S. pyogenes ^T membrane by DICAMs were assayed with the fluorescent probes SYTOX Green and DiSC3(5), respectively, in a Varioskan Flash microplate reader (Thermo Scientific; Spain) using FluoroNunc 96-well plates (Thermo Scientific; Spain). For permeation assays, cells were grown to an OD550 ≈ 0.3, washed once with PBS pH 7.2 (3,800 × g, 7 min, room temperature), and adjusted to a final OD550 ≈ 0.4 (∼10^8 CFU/mL) with the same buffer before mixing in the dark with SYTOX Green (5 µM final concentration). One hundred µL of this suspension was dispensed per plate well and the signal stabilization was monitored for 15 min (λex = 485 nm; λem = 520 nm). Then, 100 µL of two-fold serially diluted lipopeptide samples was added and changes in fluorescence intensity were registered for 60 min at 37°C. SYTOX Green (900 Da) binds to intracellular DNA when the cell membrane is damaged, thereby increasing fluorescence intensity ([Roth et al., 1997]). Positive controls (100% membrane permeabilization) were carried out by adding Titron X-100 (0.01% final concentration) to untreated bacterial samples ([Rathinakumar et al., 2009]). For membrane depolarization assays, 180 µL of an OD550 ≈ 0.2 culture (BHI; ≈ 10^7 CFU/mL) supplemented with DiSC3(5) (1 µM final concentration) was distributed per well, and signal stabilization was registered for 30 min (λex = 622 nm; λem = 670 nm) ([Te Winkel et al., 2016]). Subsequently, 20 µL of a two-fold serial dilution of lipopeptide in culture medium was added, and fluorescence intensity was recorded for 60 min at 37°C. Partition of DiSC3(5) to the surface of polarized cells decreases the probe fluorescence, and its release, caused by membrane depolarization, results in an increase in fluorescence. […] The background signal of controls with bacterial cells without the fluorescent probe, as well as the dye fluorescence in the presence of the tested compounds without bacteria, were also registered. No change in the fluorescence intensity of the probes occurred upon DICAM addition in the absence of bacterial cells.

S. pyogenes T membrane [6] = test: Membrane depolarization, DiSC3(5); assay type: cell-based, Streptococcus pyogenes; conditions: S. pyogenes T in BHI, 37°C
Procedure: as §4

[7] = Calcein release from LUVs; conditions: 10 μM DICAM, 25°C, vesicle buffer pH 7.4, calcein release
Procedure: as §3

Row | Substance | Retention time [1] [min] | Growth halt or lysis (50/100 μM), Spn [2] | Growth halt or lysis (50/100 μM), Ec (Escherichia coli DH10B) | Growth halt or lysis (50/100 μM), Pa [3] | Growth halt or lysis (50/100 μM), Sa T (Staphylococcus aureus T) | Growth halt or lysis (50/100 μM), Spy T (Streptococcus pyogenes T) | Permeation of model membranes (LUVs), result in words [4] | Membrane permeation (SYTOX Green), result in words (S. pyogenes T membrane [5]) | Membrane depolarization (DiSC3(5)), result in words (S. pyogenes T membrane [6]) | Permeation of DOPE:POPG:CL (80:15:5) LUVs, result in words [7]
1 | Asn- Pro -NH-C18H37 · HCl [DICAM 13] | 20.18 | - | - | - | - | + | able to permeate all tested model membranes |  |  | 
2 | Asn- Pro -Tyr(Bzl)-NH-C18H37 ·HCl [DICAM 6] | 22.10 | - | - | - | - | - |  | no depolarization or membrane permeation | no depolarization | particularly effective
